Assay results as given in ChEMBL document CHEMBL3885861, “Open TG-GATES”.

Organism: Rattus norvegicus
Experiment: Open TG-GATES - Regimen: Daily Repeat
Assay type: toxicity, organism-based, Sprague-Dawley
Design: regimen Daily Repeat, gender Male, age 6 weeks
Conditions: in vivo, po, 0 mg/kg, route gavage, dose level Control; for APTT / Bas / Eos / Fbg / Hb / Ht / Lym / MCH / MCHC / MCV / Mono / Neu / PT / Plat / RBC / Ret / WBC: tissue Blood; for KIDNEY_L / KIDNEY_R / KIDNEY_TOTAL: tissue Kidney; for LIVER: tissue Liver; for A/G / ALP / ALT / AST / BUN / CRE / Ca / Cl / DBIL / GLC / IP / K / LDH / Na / PL / RALB / TBIL / TC / TG / TP / gamma-GTP: tissue Plasma

## Nc1ccc(Cc2ccc(N)cc2)cc1
72 h, time 3 day
  TERMINAL_BW: 240.9 g
  APTT: 13.2 s
  Bas: 0%
  Eos: 1%
  Fbg: 284.6 mg/dL
  Hb: 13.1 g/dL
  Ht: 38.4%
  Lym: 75%
  MCH: 21.1 pg
  MCHC: 34%
  MCV: 62.1 fL
  Mono: 2.8%
  Neu: 20.2%
  PT: 11.7 s
  Plat: 134 x10_4/uL
  RBC: 618.2 x10_4/ul
  Ret: 6.4%
  WBC: 93.3 x10_2/uL
  KIDNEY_L: 1 g
  KIDNEY_R: 1 g
  KIDNEY_TOTAL: 2 g
  LIVER: 11.1 g
  A/G: 0.8
  ALP: 1856.4 IU/L
  ALT: 42 IU/L
  AST: 71.6 IU/L
  BUN: 15.2 mg/dL
  CRE: 0.2 mg/dL
  Ca: 11 mg/dL
  Cl: 105.4 meq/L
  DBIL: 0.018 mg/dL
  GLC: 177.2 mg/dL
  IP: 7.6 mg/dL
  K: 4 meq/L
  LDH: 76.6 IU/L
  Na: 142.8 meq/L
  PL: 139 mg/dL
  RALB: 2.6 g/dL
  TBIL: 0.038 mg/dL
  TC: 75 mg/dL
  TG: 108.2 mg/dL
  TP: 5.8 g/dL
  gamma-GTP: 1 IU/L
[…], time 7 day
  TERMINAL_BW: 282.7 g
  APTT: 15.2 s
  Bas: 0.2%
  Eos: 0.8%
  Fbg: 277.4 mg/dL
  Hb: 13.6 g/dL
  Ht: 39.5%
  Lym: 75.4%
  MCH: 20.9 pg
  MCHC: 34.5%
  MCV: 60.7 fL
  Mono: 2.2%
  Neu: 20.4%
  PT: 11.4 s
  Plat: 137.3 x10_4/uL
  RBC: 650.6 x10_4/ul
  Ret: 5.3%
  WBC: 99.1 x10_2/uL
  KIDNEY_L: 1.2 g
  KIDNEY_R: 1.1 g
  KIDNEY_TOTAL: 2.3 g
  LIVER: 12.4 g
  A/G: 0.9
  ALP: 1837.2 IU/L
  ALT: 37 IU/L
  AST: 63.8 IU/L
  BUN: 17 mg/dL
  CRE: 0.2 mg/dL
  Ca: 11 mg/dL
  Cl: 106 meq/L
  DBIL: 0.022 mg/dL
  GLC: 177.6 mg/dL
  IP: 6.8 mg/dL
  K: 4.1 meq/L
  LDH: 65.6 IU/L
  Na: 143.2 meq/L
  PL: 138.6 mg/dL
  RALB: 2.7 g/dL
  TBIL: 0.066 mg/dL
  TC: 70.6 mg/dL
  TG: 106 mg/dL
  TP: 5.8 g/dL
  gamma-GTP: 1 IU/L
[…], time 14 day
  TERMINAL_BW: 342.6 g
  APTT: 14.9 s
  Bas: 0.2%
  Eos: 1%
  Fbg: 273 mg/dL
  Hb: 13.4 g/dL
  Ht: 39%
  Lym: 73.8%
  MCH: 20.2 pg
  MCHC: 34.1%
  MCV: 59.3 fL
  Mono: 2.2%
  Neu: 22.6%
  PT: 11.2 s
  Plat: 158.2 x10_4/uL
  RBC: 661.2 x10_4/ul
  Ret: 7.2%
  WBC: 97.7 x10_2/uL
  KIDNEY_L: 1.3 g
  KIDNEY_R: 1.2 g
  KIDNEY_TOTAL: 2.5 g
  LIVER: 14.8 g
  A/G: 0.8
  ALP: 1483.2 IU/L
  ALT: 36.6 IU/L
  AST: 58.6 IU/L
  BUN: 15.4 mg/dL
  CRE: 0.2 mg/dL
  Ca: 11 mg/dL
  Cl: 104.6 meq/L
  DBIL: 0.022 mg/dL
  GLC: 172.2 mg/dL
  IP: 6.3 mg/dL
  K: 3.9 meq/L
  LDH: 79.4 IU/L
  Na: 143.2 meq/L
  PL: 147 mg/dL
  RALB: 2.7 g/dL
  TBIL: 0.052 mg/dL
  TC: 76.6 mg/dL
  TG: 133.4 mg/dL
  TP: 6.2 g/dL
  gamma-GTP: 1 IU/L
[…], time 28 day
  TERMINAL_BW: 438.3 g
  APTT: 17.5 s
  Bas: 0.4%
  Eos: 0.8%
  Fbg: 284.2 mg/dL
  Hb: 14.9 g/dL
  Ht: 42.2%
  Lym: 78%
  MCH: 20.2 pg
  MCHC: 35.3%
  MCV: 57.2 fL
  Mono: 2%
  Neu: 17.6%
  PT: 11.9 s
  Plat: 120.3 x10_4/uL
  RBC: 738.4 x10_4/ul
  Ret: 2.2%
  WBC: 122.3 x10_2/uL
  KIDNEY_L: 1.5 g
  KIDNEY_R: 1.4 g
  KIDNEY_TOTAL: 2.9 g
  LIVER: 17.8 g
  A/G: 0.7
  ALP: 1089.4 IU/L
  ALT: 34.4 IU/L
  AST: 56.6 IU/L
  BUN: 15.2 mg/dL
  CRE: 0.2 mg/dL
  Ca: 10.9 mg/dL
  Cl: 105.2 meq/L
  DBIL: 0.02 mg/dL
  GLC: 176.4 mg/dL
  IP: 5.9 mg/dL
  K: 3.7 meq/L
  LDH: 67.6 IU/L
  Na: 144.4 meq/L
  PL: 141.2 mg/dL
  RALB: 2.7 g/dL
  TBIL: 0.058 mg/dL
  TC: 67.8 mg/dL
  TG: 168.2 mg/dL
  TP: 6.4 g/dL
  gamma-GTP: 1 IU/L
